Assay results from US12090140B2, “Non-sedating dexmedetomidine treatment regimens” (priority 2023, dated 2024).
Where two headings read alike, the source gives them in different places.

Assays:
[1] = tested on: agitation in subjects suffering from schizophrenia
[2] = human, in vivo, iv
Text: Mean infusion rate is 0.36 mcg/kg/hr with the maximum rate ranging from about 0.2 mcg/kg/hr to about 0.6 mcg/kg/hr (see FIGS. 18 to 20).

[3] = cited from earlier work
plasma proteins = conditions: cited from earlier work
pregnant rats = conditions: rat, cited from earlier work
pregnant rabbits = conditions: rabbit; intravenous up to 96 mcg/kg/day, GD 6 to 18; cited from earlier work
[4] = tested on: pregnant rats and offspring; conditions: rat, cited from earlier work
[5] = tested on: bacterial reverse mutation; conditions: in vitro Ames bacterial reverse mutation test; cited from earlier work
mouse lymphoma cell = conditions: mammalian mouse lymphoma cell forward mutation assay; cited from earlier work
human lymphocyte = conditions: cited from earlier work
[6] = tested on: bone marrow of CD-1 and NMRI mice; conditions: cited from earlier work
male or female rats = conditions: daily subcutaneous injections up to 54 mcg/kg; cited from earlier work
cytochrome P450 = conditions: human liver microsomes; cited from earlier work
[7] = tested on: adult patients and healthy adult subjects; conditions: loading IV bolus of undiluted drug, 19.4 mcg/kg; one patient; cited from earlier work
[8] = cited from earlier work; remark: listed apart in the source
[9] = radiolabeled, intravenous, after nine days

Work on Cc1cccc([C@H](C)c2cnc[nH]2)c1C [Dexmedetomidine, (+) 4-(S)-[1-(2,3-dimethylphenyl)ethyl]-1H-imidazole] yielded a PEC value ([1]; Patient 1 (treatment arm), 0 min after infusion start) of 9, a PEC value ([1]; Patient 1 (treatment arm), 15 min after infusion start) of 5 and a PEC value ([1]; Patient 2 (treatment arm), 0 min after infusion start) of 16. It also gave a PEC value ([1]; Patient 2 (treatment arm), 15 min after infusion start) of 13, a PEC value ([1]; Patient 2 (treatment arm), 30 min after infusion start) of 12 and a PEC value ([1]; Patient 2 (treatment arm), 45 min after infusion start) of 11. The PEC value ([1]; Patient 2 (treatment arm), 60 min after infusion start) was 9, the PEC value ([1]; Patient 2 (treatment arm), 75 min after infusion start) was 7 and the PEC value ([1]; Patient 3 (treatment arm), 0 min after infusion start) was 12. For the same molecule, the PEC value ([1]; Patient 3 (treatment arm), 15 min after infusion start) was 12, the PEC value ([1]; Patient 3 (treatment arm), 30 min after infusion start) was 10 and the PEC value ([1]; Patient 3 (treatment arm), 45 min after infusion start) was 7. For the same molecule, the PEC value ([1]; Patient 3 (treatment arm), 60 min after infusion start) was 6, the PEC value ([1]; Patient 4 (treatment arm), 0 min after infusion start) was 9 and the PEC value ([1]; Patient 4 (treatment arm), 15 min after infusion start) was 9. It also gave a PEC value ([1]; Patient 4 (treatment arm), 30 min after infusion start) of 8, a PEC value ([1]; Patient 4 (treatment arm), 45 min after infusion start) of 8 and a PEC value ([1]; Patient 4 (treatment arm), 60 min after infusion start) of 7. It also gave a PEC value ([1]; Patient 4 (treatment arm), 75 min after infusion start) of 7, a PEC value ([1]; Patient 4 (treatment arm), 90 min after infusion start) of 7 and a PEC value ([1]; Patient 4 (treatment arm), 120 min after infusion start) of 7. The PEC value ([1]; Patient 4 (treatment arm), […] after infusion start) was 7, the PEC value ([1]; Patient 11 (treatment arm), 0 min after infusion start) was 13 and the PEC value ([1]; Patient 11 (treatment arm), 15 min after infusion start) was 13. For the same molecule, the PEC value ([1]; Patient 11 (treatment arm), 30 min after infusion start) was 11, the PEC value ([1]; Patient 11 (treatment arm), 45 min after infusion start) was 9 and the PEC value ([1]; Patient 11 (treatment arm), 60 min after infusion start) was 9. It also gave a PEC value ([1]; Patient 11 (treatment arm), 75 min after infusion start) of 7, a PEC value ([1]; Patient 12 (treatment arm), 0 min after infusion start) of 13 and a PEC value ([1]; Patient 12 (treatment arm), 15 min after infusion start) of 13. It also gave a PEC value ([1]; Patient 12 (treatment arm), 30 min after infusion start) of 13, a PEC value ([1]; Patient 12 (treatment arm), 45 min after infusion start) of 10 and a PEC value ([1]; Patient 12 (treatment arm), 60 min after infusion start) of 10. For the same molecule, the PEC value ([1]; Patient 12 (treatment arm), 75 min after infusion start) was 8, the PEC value ([1]; Patient 12 (treatment arm), 90 min after infusion start) was 6 and the PEC value ([1]; Patient 12 (treatment arm), […] after infusion start) was 5. The PEC value ([1]; Patient 14 (treatment arm), 0 min after infusion start) was 10, the PEC value ([1]; Patient 14 (treatment arm), 15 min after infusion start) was 9 and the PEC value ([1]; Patient 14 (treatment arm), 30 min after infusion start) was 6. It also gave a PEC value ([1]; Patient 14 (treatment arm), 45 min after infusion start) of 6, a PEC value ([1]; Patient 14 (treatment arm), 60 min after infusion start) of 5 and a PEC value ([1]; Patient 14 (treatment arm), 75 min after infusion start) of 5. For the same molecule, the PEC value ([1]; Patient 16 (treatment arm), 0 min after infusion start) was 10, the PEC value ([1]; Patient 16 (treatment arm), 15 min after infusion start) was 9 and the PEC value ([1]; Patient 16 (treatment arm), 30 min after infusion start) was 6. The PEC value ([1]; Patient 16 (treatment arm), 45 min after infusion start) was 6, the PEC value ([1]; Patient 16 (treatment arm), 60 min after infusion start) was 7 and the PEC value ([1]; Patient 16 (treatment arm), 75 min after infusion start) was 5. The PEC value ([1]; Patient 17 (treatment arm), 0 min after infusion start) was 10, the PEC value ([1]; Patient 17 (treatment arm), 15 min after infusion start) was 8 and the PEC value ([1]; Patient 17 (treatment arm), 30 min after infusion start) was 7. For the same molecule, the PEC value ([1]; Patient 17 (treatment arm), 45 min after infusion start) was 5, the “Time to reach Cmax” value [2] was 15 to 105 min and the “Pharmacokinetics (Cmax, Tmax, AUC, t½, CL, and V) in renal impairment versus normal renal function” value ([3]; creatinine clearance <30 mL/minute) was “not significantly different”. For the same molecule, the Extent of biotransformation ([3]; direct glucuronidation and cytochrome P450 (primarily CYP2A6)) was “almost complete biotransformation”, the Clearance ([3]; intravenous administration) was “approximately 39 L/h” and the “Steady-state volume of distribution (Vss)” value ([3]; intravenous administration) was “approximately 118 liters”. The “Radioactivity recovered in the feces” value [3, 9] was 4%, the “Radioactivity recovered in the urine” value [3, 9] was 95% and the “Aliphatic hydroxylation products, share of the dose in urine” value ([3]; radiolabeled, intravenous) was “approximately 14%”. The “N-methylation products, share of the dose in urine” value ([3]; radiolabeled, intravenous) was “approximately 18%”, the “Products of N-glucuronidation, share of cumulative urinary excretion” value ([3]; radiolabeled, intravenous) was “approximately 34%” and the “Share of urinary radioactivity excreted within 24 hours after the infusion” value ([3]; radiolabeled, intravenous) was “Approximately 85%”. The “Unchanged drug in the urine” value ([3]; radiolabeled, intravenous) was “No unchanged dexmedetomidine was detected”, the “Urinary metabolites not identified” value ([3]; radiolabeled, intravenous) was “Approximately 28%” and the “Clearance in hepatic impairment (Child-Pugh Class A, B, or C)” value ([3]; versus normal hepatic function) was “decreased”. The “Fraction bound to plasma proteins in hepatic impairment versus healthy subjects” value (plasma proteins) was “significantly decreased”, the Average protein binding (plasma proteins; plasma of healthy male and female subjects) was 94% and the Malformations (pregnant rats; any dose level) was “No malformations”. The Embryo-fetal findings (pregnant rats; subcutaneous 20 mcg/kg/day) was “No embryo-fetal toxicity”, the Embryo-fetal findings (pregnant rats; subcutaneous 200 mcg/kg/day, GD 5 to 16, with maternal toxicity) was “Increased post-implantation losses and reduced live pups” and the “Malformation or embryo-fetal toxicity” value (pregnant rabbits) was “No malformation or embryo-fetal toxicity”. The “Developmental findings when first generation offspring were mated” value ([4]; 32 mcg/kg/day) was “Decreased viability of second generation offspring and an increase in early implantation loss along with delayed motor development”, the Developmental findings ([4]; subcutaneous 8 mcg/kg/day, GD 16 to PND 25) was “Reduced pup and adult offspring weights and grip strength” and the Mutagenicity [5] was “not mutagenic”. The Mutagenicity (mouse lymphoma cell) was “not mutagenic”, the Clastogenicity (human lymphocyte; absence or presence of human liver S9 metabolic activation) was “not clastogenic” and the Clastogenicity (human lymphocyte; presence of rat liver S9 metabolic activation) was “weak clastogenic response”. The Clastogenicity ([6]; CD-1 mice) was “not clastogenic”, the Clastogenicity ([6]; NMRI mice) was “some evidence for clastogenicity” and the Fertility (male or female rats) was “not affected”. The “Cytochrome P450 mediated drug interactions” value (cytochrome P450) was “no evidence of cytochrome P450 mediated drug interactions”, the Effects of overdose [7] was “cardiac arrest” and the Placental transfer ([8]; available data in humans) was “crosses the placenta”. For the same molecule, the “Presence in human milk” value ([8]; following intravenous administration, published literature) was “presence of dexmedetomidine in human milk”.
